# Results as given in patent publication US12571052B2, “Immunomodulatory RNA” (THE TRUSTEES OF THE UNIVERSITY OF PENNSYLVANIA, priority 2017, dated 2026).
# “Also recorded” adds a separate entry of the source.
# Tests used:
# recombinant RIG-I = biological target: T1, recombinant RIG-I (Homo sapiens, UniProt O95786); experiment: RIG-I ATPase assay (ATP hydrolysis); assay type: biochemical; conditions: RNA added to recombinant RIG-I, equimolar amounts
# T1 sequence (O95786 1-925): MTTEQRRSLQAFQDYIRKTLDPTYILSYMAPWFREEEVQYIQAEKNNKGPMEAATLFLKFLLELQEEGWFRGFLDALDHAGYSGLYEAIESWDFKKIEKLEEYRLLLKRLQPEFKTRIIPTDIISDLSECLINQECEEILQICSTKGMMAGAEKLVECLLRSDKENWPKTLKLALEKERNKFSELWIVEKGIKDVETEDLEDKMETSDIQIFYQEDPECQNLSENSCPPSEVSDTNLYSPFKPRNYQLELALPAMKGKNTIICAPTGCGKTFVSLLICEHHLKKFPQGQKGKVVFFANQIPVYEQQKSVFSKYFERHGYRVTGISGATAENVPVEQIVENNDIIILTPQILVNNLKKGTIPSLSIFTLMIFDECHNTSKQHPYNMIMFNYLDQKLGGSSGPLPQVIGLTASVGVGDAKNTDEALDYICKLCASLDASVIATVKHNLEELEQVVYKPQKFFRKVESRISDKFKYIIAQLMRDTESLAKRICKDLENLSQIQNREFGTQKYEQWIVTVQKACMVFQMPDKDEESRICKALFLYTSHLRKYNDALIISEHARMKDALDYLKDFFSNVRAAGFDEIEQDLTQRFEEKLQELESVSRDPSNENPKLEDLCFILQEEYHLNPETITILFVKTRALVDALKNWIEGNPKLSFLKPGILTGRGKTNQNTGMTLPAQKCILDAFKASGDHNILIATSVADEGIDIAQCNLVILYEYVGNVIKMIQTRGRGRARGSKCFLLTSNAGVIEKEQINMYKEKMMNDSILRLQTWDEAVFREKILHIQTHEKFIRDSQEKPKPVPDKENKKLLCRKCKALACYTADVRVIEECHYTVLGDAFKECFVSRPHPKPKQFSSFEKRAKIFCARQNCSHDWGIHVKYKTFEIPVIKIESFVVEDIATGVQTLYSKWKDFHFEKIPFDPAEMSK
# Description: RIG-I ATPase Assays. RIG-I ATPase assays were performed as previously described (Devarkar et al. (2016) Proc. Natl. Acad. Sci. 113, 596-601). In brief, increasing amounts of RNA (10-60 nM) were added to a constant quantity of RIG-I (5 nM) in the presence of 1 mM ATP. ATP hydrolysis was measured with the EnzChek Phosphate Assay Kit (ThermoFisher) after 60-90 minutes at 37° C. ATP hydrolysis was then measured by absorbance of 360 nm compared to background. A 19-mer 5′triphosphate dsRNA (Invivogen) and DVG396 were used as positive controls and a 19-mer 5′OH dsRNA (Invivogen) and an in vitro transcribed 300 bp ssRNA stretch of GAPDH (GAPDH300) were used as negative controls.
# [1] = tested on: myeloid/dendritic cells in the spleen; experiment: Spleen myeloid/dendritic cell activation after intravenous injection; assay type: in vivo, mice
# 1833 breast cancer cells = experiment: ISG expression in breast cancer cells after RNA transfection (qRT-PCR); assay type: cell-based, Human
# Description: Gene Targeting and Expression. Gene knockdown by siRNA was completed using SMARTPool siRNAs (Thermo) and transfected using 20 nM siRNA and RNAiMax (Invitrogen) transfection reagent. For stable knockdowns, shRNAs were cloned into the pGIPZ vector and transduced by virus using pCMV-VSV-G and pHR8.2AR envelope and packaging vectors in HEK293T cells. Transduced cells were selected using 1-2 ug/ml of puromycin. Wild-type and K858A/K861A binding mutant of RIG-I was cloned into the pOZ-N vector. Transduced cells were then selected with IL-2 receptor magnetic beads and expression was confirmed by Western blot for FLAG, HA, and RIG-I. RIG-I restoration was functionally confirmed by RIG-I pathway activation in response to Sendai virus infection. SRP9 and SRP14 were transiently transfected with pGFH-9 (Addgene plasmid #39538) and pGFH-14c (Addgene plasmid #39541), both gifts from Katharina Strub. Gene knockout by CRISPR was accomplished using pSpCas9 (BB)-2A-GFP (PX458) (Addgene plasmid #48138). RIG-I was knocked out utilizing the protocol described (Ran et al. (2013) Nat. Protoc. 8, 2281-2308). In brief, two distinct guide RNAs cloned into the pSpCas9 (BB)-2A-GFP backbone were transiently transfected into breast cancer cells. After 48 hours, single cells were sorted into 96 well single cell clones based on highest GFP expression. Clones were confirmed to have no RIG-I expression by immunoblot and pooled. RIG-I KO in the pooled clones were functionally confirmed by RIG-I pathway activation in response to Sendai virus infection.
# In Vitro Transcription. In vitro transcription was performed using of PCR amplified cDNA templates that contained Hepatitis Delta Virus Ribozyme to ensure homogenous 3′ ends of the transcripts of interest (Avis et al. (2012) Methods Mol. Biol. 941, 83-97). In vitro transcription was completed with the MEGAshortscript T7 Transcription Kit (ThermoFisher) according to manufacturer's instructions. RNA was DNase treated and phenol/chloroform purified. After thermocycling to ensure ribozyme cleavage, correct size transcripts were gel purified. […]
substance,measurement,setting,value
"RN7SL1: Human RN7SL1 (7SL, srpRNA) RNA, 5'ppp, in vitro transcribed or secreted unshielded in exosomes; SEQ ID NO: 2",RIG-I ATP helicase activity as measured by ATP hydrolysis,recombinant RIG-I,directly binds recombinant RIG-I; also recorded: comparable to an equimolar amount of Sendai virus-derived RNA (DVG396)
same,myeloid/dendritic cell maturation and activation (MHCII+ and CD86+),[1],promote immune cell activation in the neutral immune environment of mouse spleens
same,ISG induction after transfection,"1833 breast cancer cells; 1833 cells, RIG-I wild type",induces ISGs in breast cancer cells specifically in a RIG-I-dependent manner
same,ISG induction after transfection,1833 breast cancer cells; RIG-I KO cells with re-expression of WT RIG-I,restored antiviral signaling
same,ISG induction after transfection,1833 breast cancer cells; alkaline phosphatase treatment prior to transfection,abolished ISG induction
